This passage reports percent degradation of TPM3-TRKA protein and IC50 results from patent US12410171B2, “Tropomyosin receptor kinase (TRK) degradation compounds and methods of use” (Cullgen (Shanghai), Inc., priority 2020, dated 2025).

A word on the IC50: it is the concentration needed to halve the response being measured.

One experiment has as its target T1, TPM3-TRKA fusion protein (Homo sapiens, UniProt P04629).
T1 construct: The resulted chimeric proteins always retain the kinase domain of TRK proteins; TPM3 (fusion partner, N-terminal part of tropomyosin alpha-3, P06753); endogenous in cells; host or cells: KM12 colon cancer cells; the other entry of the earlier key: TPM3 (P06753, Tropomyosin alpha-3 chain)
The experiment can be described thus: TPM3-TRKA fusion protein levels in KM12 cells (Western blot). Format: cell-based. Particulars: read-out: Degradation (at 10 nM). In short, it runs like this: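 KM12 colon cancer cells were treated with DMSO or compounds at 0.1–100 nM, 0.4–30 nM or other stated concentrations for 4, 8–16 or 16 h. RIPA lysates were BCA-normalized and resolved by SDS-PAGE. TPM3-TRKA was detected by chemiluminescent Western blot, with bands quantified by densitometry.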

For another experiment, the system named is KM12 cells. The experiment can be described thus: KM12 cell viability (CellTiter-Glo). It is filed as cell-based. Particulars: Homo sapiens. In short, it runs like this:
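KM12 cells seeded at 5000 per well in RPMI 1640 + 10% FBS and exposed 3 days to serial dilutions (11-point 3-fold, 8-point 3-fold from 1000 nM, or 12-point 2-fold). Viability by CellTiter-Glo; IC50 from least-squares nonlinear regression.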

[1] abbreviates: 16 h, TPM3-TRKA degradation in KM12 cells at 10 nM.
[2] abbreviates: 72 h, KM12 cell viability, 11-point 3-fold serial dilution, 3 days, CellTiter-Glo, read-out: IC50.
The mark [3] stands for this setting: 16 h, TPM3-TRKA degradation in KM12 cells at 10 nM compound, category of percentage degradation.
Where [4] appears, read: 72 h, KM12 cell viability, CellTiter-Glo, three days treatment, read-out: IC50.

Each structure is given as a SMILES string. Where two headings read alike, the source gives them in different places.

T1 sequence (P04629 with tags, fused parts or gaps): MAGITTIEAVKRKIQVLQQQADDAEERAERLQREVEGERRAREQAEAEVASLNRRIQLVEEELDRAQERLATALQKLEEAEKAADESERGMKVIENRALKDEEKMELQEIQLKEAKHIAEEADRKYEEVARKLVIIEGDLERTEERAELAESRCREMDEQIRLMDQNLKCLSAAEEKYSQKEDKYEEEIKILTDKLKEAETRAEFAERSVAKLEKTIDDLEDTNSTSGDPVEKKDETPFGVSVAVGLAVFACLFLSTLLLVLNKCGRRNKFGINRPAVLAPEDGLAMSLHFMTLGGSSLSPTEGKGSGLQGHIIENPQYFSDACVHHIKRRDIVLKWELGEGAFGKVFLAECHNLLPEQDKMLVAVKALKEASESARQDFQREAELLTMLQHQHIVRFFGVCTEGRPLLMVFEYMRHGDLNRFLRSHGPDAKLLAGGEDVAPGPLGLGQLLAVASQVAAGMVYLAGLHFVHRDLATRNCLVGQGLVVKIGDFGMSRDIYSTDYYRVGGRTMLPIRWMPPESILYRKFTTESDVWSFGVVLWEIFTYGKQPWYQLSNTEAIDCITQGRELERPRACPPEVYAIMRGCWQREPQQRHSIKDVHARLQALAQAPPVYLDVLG

In the case of `NC(=O)C1CCN(c2cc(CN3CCN(C(=O)CCCCCNc4cccc5c4C(=O)N(C4CCC(=O)NC4=O)C5=O)CC3)ccc2NC(=O)c2coc(N3CCOCC3)n2)CC1` (stereo not drawn) [CPD-482, N-(2-(4-carbamoylpiperidin-1-yl)-4-((4-(6-((2-(2,6-dioxopiperidin-3-yl)-1,3-dioxoisoindolin-4-yl)amino)hexanoyl)piperazin-1-yl)methyl)phenyl)-2-morpholinooxazole-4-carboxamide], the percent degradation of TPM3-TRKA protein at 0.01 µM on TPM3-TRKA fusion protein (setting [1]) is more than 80%. In addition, the IC50 in the experiment with KM12 cells (setting [2]) stood at 4.7 nM.

On to `NC(=O)C1CCN(c2cc(CN3CCN(C(=O)CCCCCCNc4cccc5c4C(=O)N(C4CCC(=O)NC4=O)C5=O)CC3)ccc2NC(=O)c2coc(N3CCOCC3)n2)CC1` (stereo not drawn) [CPD-483, N-(2-(4-carbamoylpiperidin-1-yl)-4-((4-(7-((2-(2,6-dioxopiperidin-3-yl)-1,3-dioxoisoindolin-4-yl)amino)heptanoyl)piperazin-1-yl)methyl)phenyl)-2-morpholinooxazole-4-carboxamide], for which the percent degradation of TPM3-TRKA protein at 0.01 µM at TPM3-TRKA fusion protein (setting [1]) was more than 80%. Moreover, the IC50 in the experiment with KM12 cells (setting [2]) came to 5.5 nM.

Take `NC(=O)C1CCN(c2cc(CN3CCN(C(=O)CCCCCCCNc4cccc5c4C(=O)N(C4CCC(=O)NC4=O)C5=O)CC3)ccc2NC(=O)c2coc(N3CCOCC3)n2)CC1` (stereo not drawn) [CPD-484, N-(2-(4-carbamoylpiperidin-1-yl)-4-((4-(8˜ ((2-(2,6-dioxopiperidin-3-yl)-1,3-dioxoisoindolin-4-yl)amino)octanoyl)piperazin-1-yl)methyl)phenyl)-2-morpholinooxazole-4-carboxamide]: the percent degradation of TPM3-TRKA protein at 0.01 µM at TPM3-TRKA fusion protein (setting [1]) was more than 80%. Also, the IC50 in the experiment on KM12 cells (setting [2]) amounted to 42 nM.

Consider `NC(=O)C1CCN(c2cc(CN3CCN(C(=O)CCOCCNc4cccc5c4C(=O)N(C4CCC(=O)NC4=O)C5=O)CC3)ccc2NC(=O)c2coc(N3CCOCC3)n2)CC1` (stereo not drawn) [CPD-485, N-(2-(4-carbamoylpiperidin-1-yl)-4-((4-(3-(2-((2-(2,6-dioxopiperidin-3-yl)-1,3-dioxoisoindolin-4-yl)amino)ethoxy)propanoyl)piperazin-1-yl)methyl)phenyl)-2-morpholinooxazole-4-carboxamide], for which, at TPM3-TRKA fusion protein (setting [1]), the percent degradation of TPM3-TRKA protein at 0.01 µM was 50 to 80%. For the same compound, in the experiment on KM12 cells (setting [2]), the IC50 turned out to be 94 nM.

In the case of `NC(=O)C1CCN(c2cc(CN3CCN(C(=O)CCOCCOCCOCCNc4cccc5c4C(=O)N(C4CCC(=O)NC4=O)C5=O)CC3)ccc2NC(=O)c2coc(N3CCOCC3)n2)CC1` (stereo not drawn) [CPD-487, N-(2-(4-carbamoylpiperidin-1-yl)-4-((4-(3-(2-(2-(2-((2-(2,6-dioxopiperidin-3-yl)-1,3-dioxoisoindolin-4-yl)amino)ethoxy)ethoxy)ethoxy)propanoyl)piperazin-1-yl)methyl)phenyl)-2-morpholinooxazole-4-carboxamide], the percent degradation of TPM3-TRKA protein at 0.01 µM on TPM3-TRKA fusion protein (setting [1]) was 50 to 80%. Moreover, the IC50 with KM12 cells (setting [2]) is 121 nM.

On to `Cc1ncsc1-c1ccc(CNC(=O)[C@@H]2C[C@@H](O)CN2C(=O)[C@@H](NC(=O)CCCCCCCCC(=O)N2CCN(Cc3ccc(NC(=O)c4coc(N5CCOCC5)n4)c(N4CCC(C(N)=O)CC4)c3)CC2)C(C)(C)C)cc1` [CPD-493, N-(2-(4-carbamoylpiperidin-1-yl)-4-((4-(10-(((S)-1-((2S,4R)-4-hydroxy-2-((4-(4-methylthiazol-5-yl)benzyl)carbamoyl)pyrrolidin-1-yl)-3,3-dimethyl-1-oxobutan-2-yl)amino)-10-oxodecanoyl)piperazin-1-yl)methyl)phenyl)-2-morpholinooxazole-4-carboxamide], for which, at TPM3-TRKA fusion protein (setting [1]), the percent degradation of TPM3-TRKA protein at 0.01 µM lay within 50 to 80%. Also, in the experiment on KM12 cells (setting [2]), the IC50 is 46 nM.

For the compound `COc1ccc(COc2ccc(Cn3c(N)nc4cc(-c5cnn(CC(=O)NCCNc6cccc7c6C(=O)N(C6CCC(=O)NC6=O)C7=O)c5)cnc43)cc2OC)cc1` (stereo not drawn) [CPD-498, 2-(4-(2-amino-3-(3-methoxy-4-((4-methoxybenzyl)oxy)benzyl)-3H-imidazo[4,5-b]pyridin-6-yl)-1H-pyrazol-1-yl)-N-(2-((2-(2,6-dioxopiperidin-3-yl)-1,3-dioxoisoindolin-4-yl)amino)ethyl)acetamide], the percent degradation of TPM3-TRKA protein at 0.01 µM at TPM3-TRKA fusion protein (KM12, 16 h) fell in the range of 50 to 80%. The compound also came in with an IC50 in the experiment with KM12 cells (KM12, 72 h) of 36.5 nM.

Regarding `COc1ccc(COc2ccc(Cn3c(N)nc4cc(-c5cnn(CC(=O)NCCCCNc6cccc7c6C(=O)N(C6CCC(=O)NC6=O)C7=O)c5)cnc43)cc2OC)cc1` (stereo not drawn) [CPD-499, 2-(4-(2-amino-3-(3-methoxy-4-((4-methoxybenzyl)oxy)benzyl)-3H-imidazo[4,5-b]pyridin-6-yl)-1H-pyrazol-1-yl)-N-(4-((2-(2,6-dioxopiperidin-3-yl)-1,3-dioxoisoindolin-4-yl)amino)butyl)acetamide], the percent degradation of TPM3-TRKA protein at 0.01 µM on TPM3-TRKA fusion protein (setting [1]) is more than 80%. Moreover, in the experiment on KM12 cells (setting [2]), the IC50 amounted to 11.3 nM.

Take `COc1ccc(COc2ccc(Cn3c(N)nc4cc(-c5cnn(CC(=O)NCCCCCCNc6cccc7c6C(=O)N(C6CCC(=O)NC6=O)C7=O)c5)cnc43)cc2OC)cc1` (stereo not drawn) [CPD-500, 2-(4-(2-amino-3-(3-methoxy-4-((4-methoxybenzyl)oxy)benzyl)-3H-imidazo[4,5-b]pyridin-6-yl)-1H-pyrazol-1-yl)-N-(6-((2-(2,6-dioxopiperidin-3-yl)-1,3-dioxoisoindolin-4-yl)amino)hexyl)acetamide]: on TPM3-TRKA fusion protein (setting [1]), the percent degradation of TPM3-TRKA protein at 0.01 µM is more than 80%. In addition, in the experiment with KM12 cells (setting [2]), the IC50 stood at 13.2 nM.

Regarding `COc1ccc(COc2ccc(Cn3c(N)nc4cc(-c5cnn(CC(=O)NCCCCCCCCNc6cccc7c6C(=O)N(C6CCC(=O)NC6=O)C7=O)c5)cnc43)cc2OC)cc1` (stereo not drawn) [CPD-501, 2-(4-(2-amino-3-(3-methoxy-4-((4-methoxybenzyl)oxy)benzyl)-3H-imidazo[4,5-b]pyridin-6-yl)-1H-pyrazol-1-yl)-N-(8-((2-(2,6-dioxopiperidin-3-yl)-1,3-dioxoisoindolin-4-yl)amino)octyl)acetamide], at TPM3-TRKA fusion protein (setting [1]), the percent degradation of TPM3-TRKA protein at 0.01 µM is more than 80%. Also, the IC50 in the experiment on KM12 cells (setting [2]) is 13.2 nM.

For `COc1ccc(COc2ccc(Cn3c(N)nc4cc(-c5cnn(CC(=O)NCCCCCCCC(=O)N[C@H](C(=O)N6C[C@H](O)C[C@H]6C(=O)NCc6ccc(-c7scnc7C)cc6)C(C)(C)C)c5)cnc43)cc2OC)cc1` [CPD-510, (2S,4R)-1-((S)-2-(8-(2-(4-(2-amino-3-(3-methoxy-4-((4-methoxybenzyl)oxy)benzyl)-3H-imidazo[4,5-b]pyridin-6-yl)-1H-pyrazol-1-yl)acetamido)octanamido)-3,3-dimethylbutanoyl)-4-hydroxy-N-(4-(4-methylthiazol-5-yl)benzyl)pyrrolidine-2-carboxamide], the percent degradation of TPM3-TRKA protein at 0.01 µM at TPM3-TRKA fusion protein (setting [1]) is less than 50%. In the experiment on KM12 cells (setting [2]), the IC50 was determined as 58.8 nM.

In the case of `COc1ccc(COc2ccc(Cn3c(N)nc4cc(-c5cnn(CC(=O)NCCCCCCCCCC(=O)N[C@H](C(=O)N6C[C@H](O)C[C@H]6C(=O)NCc6ccc(-c7scnc7C)cc6)C(C)(C)C)c5)cnc43)cc2OC)cc1` [CPD-511, (2S,4R)-1-((S)-2-(10-(2-(4-(2-amino-3-(3-methoxy-4-((4-methoxybenzyl)oxy)benzyl)-3H-imidazo[4,5-b]505yridine-6-yl)-1H-pyrazol-1-yl)acetamido)decanamido)-3,3-dimethylbutanoyl)-4-hydroxy-N-(4-(4-methylthiazol-5-yl)benzyl)pyrrolidine-2-carboxamide], the percent degradation of TPM3-TRKA protein at 0.01 µM at TPM3-TRKA fusion protein (setting [1]) was less than 50%. Besides, the IC50 in the experiment with KM12 cells (setting [2]) turned out to be 85.8 nM.

In the case of `O=C(CN1CCN(c2cccc(-c3cnc4ccc(N5CCC[C@@H]5c5cccc(F)c5)nn34)n2)CC1)NCCOCCNc1cccc2c1C(=O)N(C1CCC(=O)NC1=O)C2=O` (stereo partly drawn) [TR-106, N-(2-(2-((2-(2,6-dioxopiperidin-3-yl)-1,3-dioxoisoindolin-4-yl)amino)ethoxy)ethyl)-2-(4-(6-(6-((R)-2-(3-fluorophenyl)pyrrolidin-1-yl)imidazo[1,2-b]pyridazin-3-yl)pyridin-2-yl)piperazin-1-yl)acetamide], the percent degradation of TPM3-TRKA protein at 0.01 µM on TPM3-TRKA fusion protein (setting [3]) was in the range of 50 to 80%. The IC50 in the experiment on KM12 cells (setting [4]) was found to be 3.8 nM.

Take `O=C1CCC(N2C(=O)c3ccc(NCCCCC(=O)N4CCN(c5cccc(-c6cnc7ccc(N8CCC[C@@H]8c8cccc(F)c8)nn67)n5)CC4)cc3C2=O)C(=O)N1` (stereo partly drawn) [TR-115, 2-(2,6-Dioxopiperidin-3-yl)-5-((5-(4-(6-(6-((R)-2-(3-fluorophenyl)pyrrolidin-1-yl)imidazo[1,2-b]pyridazin-3-yl)pyridin-2-yl)piperazin-1-yl)-5-oxopentyl)amino) isoindoline-1,3-dione]: the percent degradation of TPM3-TRKA protein at 0.01 µM at TPM3-TRKA fusion protein (setting [3]) was more than 80%. Moreover, the IC50 in the experiment on KM12 cells (setting [4]) turned out to be 0.9 nM.

In the case of `O=C(CN1CCN(c2cccc(-c3cnc4ccc(N5CCC[C@@H]5c5cccc(F)c5)nn34)n2)CC1)NCCNc1ccc2c(c1)C(=O)N(C1CCC(=O)NC1=O)C2=O` (stereo partly drawn) [TR-130, N-(2-((2-(2,6-dioxopiperidin-3-yl)-1,3-dioxoisoindolin-5-yl]amino)ethyl)-2-(4˜ (6˜ (6-((R)-2-(3-fluorophenyl)pyrrolidin-1-yl)imidazo[1,2-b]pyridazin-3-yl)pyridin-2-yl)piperazin-1-yl)acetamide], the percent degradation of TPM3-TRKA protein at 0.01 µM at TPM3-TRKA fusion protein (setting [3]) is more than 80%. The IC50 in the experiment with KM12 cells (setting [4]) stood at 0.9 nM.
